Data from patent US20250135006A1, “AMPHIPHILIC TLR7/8 ADJUVANTS AND USES THEREOF” (Pfizer Inc., priority 2023, published 2025).

Tests used:
[1] = molecular target: T1, human toll like receptor 7 (hTLR7) (Homo sapiens, UniProt Q9NYK1); assay: hTLR7 in-vitro functional assay (HEK-Blue hTLR7 SEAP reporter); format: cell-based; conditions: HEK-Blue hTLR7 cells, overnight incubation
T1 construct: host or cells: HEK293 (HEK-Blue hTLR7)
T1 sequence (Q9NYK1 27-1049): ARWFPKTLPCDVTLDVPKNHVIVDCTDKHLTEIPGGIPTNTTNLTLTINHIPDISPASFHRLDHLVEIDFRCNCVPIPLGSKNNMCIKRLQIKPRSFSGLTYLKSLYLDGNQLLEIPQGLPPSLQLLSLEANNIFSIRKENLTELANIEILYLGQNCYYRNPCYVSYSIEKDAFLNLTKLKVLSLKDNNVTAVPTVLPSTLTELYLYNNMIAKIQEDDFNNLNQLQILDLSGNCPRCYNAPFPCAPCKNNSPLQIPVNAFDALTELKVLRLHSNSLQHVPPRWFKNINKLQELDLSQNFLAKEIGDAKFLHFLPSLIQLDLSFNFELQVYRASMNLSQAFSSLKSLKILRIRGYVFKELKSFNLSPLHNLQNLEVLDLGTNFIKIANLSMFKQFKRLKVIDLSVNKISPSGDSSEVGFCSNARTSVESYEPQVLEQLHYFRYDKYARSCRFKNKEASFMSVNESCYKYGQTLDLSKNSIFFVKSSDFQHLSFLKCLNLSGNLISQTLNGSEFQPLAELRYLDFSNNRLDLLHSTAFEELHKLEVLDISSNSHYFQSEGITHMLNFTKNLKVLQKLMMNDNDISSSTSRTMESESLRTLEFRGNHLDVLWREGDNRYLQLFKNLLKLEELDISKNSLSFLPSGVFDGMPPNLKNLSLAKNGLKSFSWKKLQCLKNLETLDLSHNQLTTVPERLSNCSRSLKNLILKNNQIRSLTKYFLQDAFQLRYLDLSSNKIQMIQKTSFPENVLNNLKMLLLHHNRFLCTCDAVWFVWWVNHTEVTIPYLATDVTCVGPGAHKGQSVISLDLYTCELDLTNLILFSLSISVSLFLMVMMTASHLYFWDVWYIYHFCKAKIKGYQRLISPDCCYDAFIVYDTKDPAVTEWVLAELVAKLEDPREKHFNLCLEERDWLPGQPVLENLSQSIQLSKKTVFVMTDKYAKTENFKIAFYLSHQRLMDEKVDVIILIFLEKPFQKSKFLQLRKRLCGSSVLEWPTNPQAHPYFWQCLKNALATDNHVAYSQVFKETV
Excerpt: (§1) To determine the ability of test compounds to activate the human toll like receptor 7 (hTLR7) or human toll like receptor 8 (hTLR8), cell-based reporter systems were utilized. HEK293 cells stably overexpressing either hTLR7 or hTLR8 along with a reporter gene containing an optimized secreted embryonic alkaline phosphatase gene (SEAP), under the control of the IFN-b minimal promoter fused to five NF-kB and AP-1-binding sites, were obtained from Invivogen (HEK-Blue™ hTLR7, cat #Hkb-htlr7; HEK-Blue™ hTLR8, cat #Hkb-htlr8). Stimulation of hTLR7 or hTLR8 in these cells activates NF-kB and AP-1 and induces the production of SEAP which can be quantified using an alkaline phosphatase detection reagent.
(§2) On day one of the assay, compounds were prepared using 11-point half-log serial dilutions from a 10 mM DMSO stock solution and 50 nL was spotted into 384-well plates (PerkinElmer, cat #6007480). Positive and negative controls were also spotted within the assay plate and were used to determine percent effect during the analysis process. After resuspension in DMEM assay media containing FBS heat inactivated (10%), Glutamax (2 mM) and Penicillin/Streptomycin, 10,000 cells/20 ul/well were added to previously prepared compound plates. Plates were incubated overnight (16-20 hrs) at 37° C. in a 5% CO2 environment. Prewetted Microclime lids (Labcyte, LLS-0310) were used to prevent evaporation. On day two of the assay, QUANTI-Blue™ detection reagent was prepared by reconstituting QUANTI-Blue™ powder (InvivoGen, Rep-qb1) with 100 ml of sterile water and allowed to equilibrate to 37° C. for 15 minutes. 20 ul of QUANTI-Blue™ detection reagent was added to each well and plates were incubated at room temperature for 180 min. At the end of the incubation, plates were read on an Envision (Perkin Elmer) plate reader capturing absorbance at 650 nm.
(§3) Using Positive (tool compound) and Negative (DMSO) controls, the percent (%) effect was calculated for each sample using the following equation: […]
(§4) The % effect at each concentration of compound was calculated utilizing the ABase software suite (IBDS) and was relative to the amount of SEAP produced in the positive and negative control wells contained within each assay plate. The concentrations and % effect values for test compounds were fit using a 4-parameter logistic model in ABase and the concentration of compound that produced 50% response (EC50) was calculated.

[2] = molecular target: T2, human toll like receptor 8 (hTLR8) (Homo sapiens, UniProt Q9NR97); assay: hTLR8 in-vitro functional assay (HEK-Blue hTLR8 SEAP reporter); format: cell-based; conditions: HEK-Blue hTLR8 cells, overnight incubation
T2 construct: host or cells: HEK293 (HEK-Blue hTLR8)
T2 sequence (Q9NR97 27-1041): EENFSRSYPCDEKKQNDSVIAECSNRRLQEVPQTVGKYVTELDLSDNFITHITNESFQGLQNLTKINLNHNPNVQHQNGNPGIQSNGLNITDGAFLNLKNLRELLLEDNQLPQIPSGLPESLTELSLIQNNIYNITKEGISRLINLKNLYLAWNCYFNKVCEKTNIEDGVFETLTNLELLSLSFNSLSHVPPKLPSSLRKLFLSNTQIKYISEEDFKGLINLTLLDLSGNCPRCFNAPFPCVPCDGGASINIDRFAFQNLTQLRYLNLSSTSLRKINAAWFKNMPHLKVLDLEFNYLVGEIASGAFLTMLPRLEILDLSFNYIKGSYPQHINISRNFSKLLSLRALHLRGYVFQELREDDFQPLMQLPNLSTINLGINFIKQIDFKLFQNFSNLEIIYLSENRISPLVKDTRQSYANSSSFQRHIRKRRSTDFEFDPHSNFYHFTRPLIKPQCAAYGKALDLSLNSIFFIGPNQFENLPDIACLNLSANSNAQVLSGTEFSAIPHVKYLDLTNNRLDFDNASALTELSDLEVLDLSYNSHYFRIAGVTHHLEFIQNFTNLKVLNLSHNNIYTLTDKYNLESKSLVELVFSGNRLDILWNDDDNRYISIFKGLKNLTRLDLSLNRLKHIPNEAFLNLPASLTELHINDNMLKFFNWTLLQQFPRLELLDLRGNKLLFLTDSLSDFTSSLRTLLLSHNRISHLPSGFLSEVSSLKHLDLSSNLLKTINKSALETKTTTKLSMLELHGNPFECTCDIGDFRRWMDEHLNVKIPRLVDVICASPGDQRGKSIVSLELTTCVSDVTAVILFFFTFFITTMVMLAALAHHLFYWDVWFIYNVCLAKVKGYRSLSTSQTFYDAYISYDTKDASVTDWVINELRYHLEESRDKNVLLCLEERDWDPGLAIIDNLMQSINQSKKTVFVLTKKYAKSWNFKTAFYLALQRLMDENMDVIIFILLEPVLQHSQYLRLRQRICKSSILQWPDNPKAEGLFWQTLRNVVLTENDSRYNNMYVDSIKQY
Excerpt: as §1, §2, §3, §4

SMILES	EC50 [1] [nM]	EC50 [2] [nM]
CCCCc1nc2c(N)nc3cc(CCCN4CCN(C(=O)CCOCCOCCOCCOCCOCCOCCOCCOCCOCCOCCOCCOCCOCCOCCOCCOCCOCCOCCOCCOCCOCCOCCOCCOCCOCCOCCOCCOCCOCCOCCOCCOCCOCCOCCOCCOCCNC(=O)CCOCCOCCOCCOCCNC(=O)O[C@H]5CC[C@@]6(C)C(=CC[C@H]7[C@@H]8CC[C@H]([C@H](C)CCCC(C)C)[C@@]8(C)CC[C@@H]76)C5)CC4)ccc3c2n1CC(C)(CO)CO [Compound 3, (3beta)-cholest-5-en-3-yl {127-[4-(3-{4-amino-2-butyl-1-[3-hydroxy-2-(hydroxymethyl)-2-methylpropyl]-1H-imidazo[4,5-c]quinolin-7-yl}propyl)piperazin-1-yl]-15,127-dioxo-3,6,9,12,19,22,25,28,31,34,37,40,43,46,49,52,55,58,61,64,67,70,73,76,79,82,85,88,91,94,97,100,103,106,109,112,115,118,121,124-tetracontaoxa-16-azaheptacosahect-1-yl}carbamate]	53	339
CCOCc1nc2c(N)nc3cc(CCCN4CCN(C(=O)CCOCCOCCOCCOCCOCCOCCOCCOCCOCCOCCOCCOCCOCCOCCOCCOCCOCCOCCOCCOCCOCCOCCOCCOCCOCCOCCOCCOCCOCCOCCOCCOCCOCCOCCOCCOCCNC(=O)CCOCCOCCOCCOCCNC(=O)O[C@H]5CC[C@@]6(C)C(=CC[C@H]7[C@@H]8CC[C@H]([C@H](C)CCCC(C)C)[C@@]8(C)CC[C@@H]76)C5)CC4)ccc3c2n1CC(C)(CO)CO [Compound 4, (3beta)-cholest-5-en-3-yl {127-[4-(3-{4-amino-2-(ethoxymethyl)-1-[3-hydroxy-2-(hydroxymethyl)-2-methylpropyl]-1H-imidazo[4,5-c]quinolin-7-yl}propyl)piperazin-1-yl]-15,127-dioxo-3,6,9,12,19,22,25,28,31,34,37,40,43,46,49,52,55,58,61,64,67,70,73,76,79,82,85,88,91,94,97,100,103,106,109,112,115,118,121,124-tetracontaoxa-16-azaheptacosahect-1-yl}carbamate]	60	1750
CCOCc1nc2c(N)nc3cc(CCCN4CCN(C(=O)CCOCCOCCOCCOCCOCCOCCOCCOCCOCCOCCOCCOCCOCCOCCOCCOCCOCCOCCOCCOCCOCCOCCOCCOCCNC(=O)CCOCCOCCOCCOCCNC(=O)O[C@H]5CC[C@@]6(C)C(=CC[C@H]7[C@@H]8CC[C@H]([C@H](C)CCCC(C)C)[C@@]8(C)CC[C@@H]76)C5)CC4)ccc3c2n1CC(C)(CO)CO [Compound 5, (3beta)-cholest-5-en-3-yl {91-[4-(3-{4-amino-2-(ethoxymethyl)-1-[3-hydroxy-2-(hydroxymethyl)-2-methylpropyl]-1H-imidazo[4,5-c]quinolin-7-yl}propyl)piperazin-1-yl]-15,91-dioxo-3,6,9,12,19,22,25,28,31,34,37,40,43,46,49,52,55,58,61,64,67,70,73,76,79,82,85,88-octacosaoxa-16-azahennonacont-1-yl}carbamate]	72	2300
CCCCc1nc2c(N)nc3cc(CCCN4CCN(C(=O)CCOCCOCCOCCOCCOCCOCCOCCOCCOCCOCCOCCOCCNC(=O)CCOCCOCCOCCOCCNC(=O)O[C@H]5CC[C@@]6(C)C(=CC[C@H]7[C@@H]8CC[C@H]([C@H](C)CCCC(C)C)[C@@]8(C)CC[C@@H]76)C5)CC4)ccc3c2n1CC(C)(CO)CO [Compound 6, (3beta,20R)-cholest-5-en-3-yl {55-[4-(3-{4-amino-2-butyl-1-[3-hydroxy-2-(hydroxymethyl)-2-methylpropyl]-1H-imidazo[4,5-c]quinolin-7-yl}propyl)piperazin-1-yl]-15,55-dioxo-3,6,9,12,19,22,25,28,31,34,37,40,43,46,49,52-hexadecaoxa-16-azapentapentacont-1-yl}carbamate]	78	5080
CCCCc1nc2c(N)nc3cc(CCCN4CCN(CCCOCCOCCOCCOCCOCCOCCOCCOCCOCCOCCOCCOCCOCCOCCOCCOCCOCCOCCOCCOCCNC(=O)O[C@H]5CC[C@@]6(C)C(=CC[C@H]7[C@@H]8CC[C@H]([C@H](C)CCCC(C)C)[C@@]8(C)CC[C@@H]76)C5)CC4)ccc3c2n1CC(C)(CO)CO [Compound 7, (3beta)-cholest-5-en-3-yl {63-[4-(3-{4-amino-2-butyl-1-[3-hydroxy-2-(hydroxymethyl)-2-methylpropyl]-1H-imidazo[4,5-c]quinolin-7-yl}propyl)piperazin-1-yl]-3,6,9,12,15,18,21,24,27,30,33,36,39,42,45,48,51,54,57,60-icosaoxatrihexacont-1-yl}carbamate]	140	14400
